Laboratory results from patent publication US12673055B2, “Treatment of atopic dermatitis with tradipitant” (Vanda Pharmaceuticals Inc., priority 2020, dated 2026).

Test system: atopic dermatitis (AD) patients with severe pruritus
Assay: EPIONE randomized, placebo-controlled phase III study
Assay type: in vivo, human
Set-up: key to WI-NRS Adjusting for IGA Severity / WI-NRS (change) / Diary WI-NRS: change from baseline in WI-NRS itch score
Procedure: A randomized, placebo-controlled phase III study is conducted in atopic dermatitis (AD) patients with severe pruritus with a range of disease severity presentation from mild (23%) to moderate (64%) and severe (13%) as determined by the Investigator's Global Assessment scale (IGA). In the study, patients (n=341) are randomized 1:1 to receive either tradipitant or placebo for a treatment period of eight (8) weeks. Patients in the tradipitant arm of the study are dosed with 85 mg tradipitant twice daily (bid). Patients are assessed at baseline and post-randomization with a number of symptomatic and disease severity scales at regular intervals.
A significant interaction is observed between baseline disease severity and treatment (p=0.0004), where disease severity is measured by Investigator's Global Assessment (IGA) on a scale of 1-4.
Similar effects are seen throughout the treatment periods at all post-randomization visits comprising weeks 2, 4, 6 and 8 (Table 1).

[1] = mild AD (n = 79), 85 mg bid, Week 8

SMILES: O=C(c1ccccc1Cl)c1cccnc1-c1nnn(Cc2cc(C(F)(F)F)cc(C(F)(F)F)c2)c1-c1ccncc1 [Tradipitant]
- WI-NRS (change) (IGA 1, 2 (mild AD, n = 79), Tradipitant n = 40, 85 mg bid, Week 2): −2.59
- WI-NRS (change) (IGA 1, 2 (mild AD, n = 79), Tradipitant n = 40, 85 mg bid, Week 4): −3.39
- WI-NRS (change) (IGA 1, 2 (mild AD, n = 79), Tradipitant n = 40, 85 mg bid, Week 6): −4.18
- WI-NRS (change) (IGA 1, 2 (mild AD, n = 79), Tradipitant n = 40, 85 mg bid, Week 8): −4.74
- Diary WI-NRS (IGA 1, 2 (n = 79), 85 mg bid, Week 2): −1.54
- Diary WI-NRS (IGA 1, 2 (n = 79), 85 mg bid, Week 4): −2.78
- Diary WI-NRS (IGA 1, 2 (n = 79), 85 mg bid, Week 6): −3.48
- Diary WI-NRS (IGA 1, 2 (n = 79), 85 mg bid, Week 8): −4.23
- Diary WI-NRS Diff (tradipitant vs placebo) (IGA 1, 2 (n = 79), Week 2): 1.18
- WI-NRS Diff (tradipitant vs placebo) (IGA 1, 2 (n = 79), Week 2): 1.61
- Diary WI-NRS Diff (tradipitant vs placebo) (IGA 1, 2 (n = 79), Week 4): 1.71
- WI-NRS Diff (tradipitant vs placebo) (IGA 1, 2 (n = 79), Week 4): 1.92
- Diary WI-NRS Diff (tradipitant vs placebo) (IGA 1, 2 (n = 79), Week 6): 1.76
- WI-NRS Diff (tradipitant vs placebo) (IGA 1, 2 (n = 79), Week 6): 1.86
- Diary WI-NRS Diff (tradipitant vs placebo) (IGA 1, 2 (n = 79), Week 8): 2.09
- WI-NRS Diff (tradipitant vs placebo) (IGA 1, 2 (n = 79), Week 8): 1.60
- WI-NRS Adjusting for IGA Severity (ITT (n = 341), 85 mg bid, Week 2): −2.43
- WI-NRS Adjusting for IGA Severity (ITT (n = 341), 85 mg bid, Week 4): −3.34
- WI-NRS Adjusting for IGA Severity (ITT (n = 341), 85 mg bid, Week 6): −3.75
- WI-NRS Adjusting for IGA Severity (ITT (n = 341), 85 mg bid, Week 8): −4.36
- WI-NRS (change) (ITT (n = 341), Tradipitant n = 171, 85 mg bid, Week 2): −1.68
- WI-NRS (change) (ITT (n = 341), Tradipitant n = 171, 85 mg bid, Week 4): −2.58
- WI-NRS (change) (ITT (n = 341), Tradipitant n = 171, 85 mg bid, Week 6): −3.00
- WI-NRS (change) (ITT (n = 341), Tradipitant n = 171, 85 mg bid, Week 8): −3.61
- WI-NRS Adjusting for IGA Severity, Diff (tradipitant vs placebo) (ITT (n = 341), Week 2): 1.14
- WI-NRS Diff (tradipitant vs placebo) (ITT (n = 341), Week 2): 0.23
- WI-NRS Adjusting for IGA Severity, Diff (tradipitant vs placebo) (ITT (n = 341), Week 4): 1.29
- WI-NRS Diff (tradipitant vs placebo) (ITT (n = 341), Week 4): 0.39
- WI-NRS Adjusting for IGA Severity, Diff (tradipitant vs placebo) (ITT (n = 341), Week 6): 1.01
- WI-NRS Diff (tradipitant vs placebo) (ITT (n = 341), Week 6): 0.11
- WI-NRS Adjusting for IGA Severity, Diff (tradipitant vs placebo) (ITT (n = 341), Week 8): 1.08
- WI-NRS Diff (tradipitant vs placebo) (ITT (n = 341), Week 8): 0.18
- magnitude of improvement in pruritus (WI-NRS) compared with placebo (full population, week 8, difference not statistically significant): greater than that of placebo
- improvement in WI-NRS compared to placebo, accounting for baseline disease severity and treatment interaction (full trial population, week 8, p=0.0217): significantly larger improvement
- safety profile (in vivo): relatively safe profile
- WI-NRS over placebo in the mild AD group (mild AD (IGA 1, 2), every visit): significantly improves WI-NRS over placebo at every visit
- Responder Analysis: IGA 0 or 1 [1]: 60.0%
- Responder Analysis: SCORAD 50% Improvement [1]: 55.0%
- Responder Analysis: IGA 0 or 1, Diff (tradipitant vs placebo) (mild AD (n = 79), Week 8): 21.5%
- Responder Analysis: SCORAD 50% Improvement, Diff (tradipitant vs placebo) (mild AD (n = 79), Week 8): 24.2%
- Responder Analysis: WI-NRS ≥4 Improvement, Diff (tradipitant vs placebo) (mild AD (n = 79), Week 8): 39.2%
- time course of response: onset of antipruritic effect (mild AD patients, daily diary): immediately after the first full day of tradipitant dosing
- Responder Analysis: WI-NRS ≥4 Improvement (mild AD, IGA 1, 2 (n = 79), 85 mg bid, Week 8): 72.5%
